Results reported in patent US8815935B2, “Inhibitors of protein prenyltransferases” (The Regents of the University of California, priority 2008, dated 2014).
pIC50: −log10 of the molar value. Read-outs that look alike come from different tables or passages of the source.

What was measured:
GGTase-I = target: T1, GGTase-I (Rattus norvegicus, UniProt P53610+Q04631); experiment: In vitro GGTase-I enzyme assay (IC50, kinetics); format: biochemical; details: for pIC50: read-out: In vitro (enzyme assay) IC50, GGTase I; for IC50: Tables 8-15, no unit printed there (Table 7 head: μM unless otherwise specified), read-out: In vitro (GGTase I IC50)
T1 construct: purchased JENA BIOSCIENCE
Experimental: The GGTase-I assay was carried out using RhoA as a substrate protein, GGTase-I (JENA Bioscience) and [3H]geranylgeranyl pyrophosphate. Incubation was for 30 min at 37° C. GGTase-II (or RabGGTase) assay was carried out using YPTI as a substrate protein, GGTase-II (Calbiochem, San Diego, Calif.) plus REP1 (Calbiochem) and [3H]geranylgeranyl pyrophosphate. Incubation was for 30 min at 37° C. FIGS. 20D-20F show the three dimensional structure of GGTase I (D), FTsse (E) and GGTase II (F) which can be obtained from X-ray diffraction studies of protein crystals.
GGTase-I and FTase activities were determined by following the incorporation of radiolabeled isoprenoid [^3H]-geranylgeranyl or [^3H]-farnesyl into substrate proteins. FTase or GGTase-I (50 nM) were used to initiate reactions containing 0.4 μM of [^3H]-FPP or 0.5 μM of [^3H]-GGPP and 2 μM of MBP-tagged substrates (K-Ras4B for FTase; RhoA for GGTase-I) in 20 μl of buffer {50 mM Tris-HCl (pH 7.5), 10 mM MgCl2, […] and 5 mM DTT}. Inhibitors were added at the indicated concentrations. The final DMSO concentration was 2.5% for all samples.
Reactions were carried out for 10 min at 30° C. The reaction mixture was spotted onto a filter paper, treated with 10% trichloroacetic acid (TCA) followed by ethanol and acetone washing. The filter was counted using a scintillation counter. Kinetic assays in which the GGPP concentration was varied employed fixed concentrations of GGTase-I and RhoA, and reactions were carried out for 5 min. Similarly, fixed concentrations of GGTase-I and GGPP were used when the amount of RhoA was varied.

Jurkat cells = experiment: Jurkat cell growth inhibition; format: cell-based, human
Experimental: In Table 4 in cell GI50 values for the growth inhibition of Jurkat cells are reported. The GI50 value is the concentration of a test compound needed to produce 50% growth inhibition in the cell type listed. In Table 4 the isolated yield of each synthetic step for the synthesis of corresponding compounds are also reported.
(§1) Panc-1 cells (Pancreatic cancer cell line) and Jurkat cells (T-cell leukemia) were treated with 12.5 μM of P5-H6 or 12.5 μM of mP5-H6a for 72 hours. The cell number was counted as described in Example 5.
(§2) Cell viability was determined by Cell Counting Kit-8 (CCK-8, Dojindo, Kumamoto, Japan) as described previously (31). Cell viability was calculated relative to the DMSO control. Cell cycle profile was analyzed by flow cytometry as described previously (32).

K562 cells = experiment: K562 cell growth inhibition; format: cell-based, human; details: no unit printed there
Experimental: K562 cells are a cell line of human erythroleukemia cells. The K562 cells were treated with P3-E5, P5-H6 or GGTI-298 (a known GGTI compound illustrated in FIG. 27) for 72 hours and then cell number was counted using cell counting kit-8 (Dojindo, Gaithersburg, Md.). Cell viability relative to the DMSO control and the known GGTI compound is plotted in FIG. 23.
as §2

MCF7 = MCF7 cell growth inhibition; format: cell-based, human; details: no unit printed there
Experimental: (§3) In FIG. 9-24 in vitro IC50 values for the GGTase I activity are reported. In Tables 7-15 in cell GI50 values for the growth inhibition of a variety of cancer cell lines (e.g., Jurkat, K562, MDA-MB-231, BT474, MCF7, MiaPaCa2, Aspc-1, Panc-1, Capan-2, CFpac-1, and MCF10a) are reported.
as §2

MCF10a = MCF10a cell growth inhibition; format: cell-based; details: Tables 8-15, no unit printed there
From the text: as §3

BT474 = BT474 cell growth inhibition; format: cell-based, human; details: Tables 8-15; no unit printed there; listed as P61C4
Experimental: as §3, §2

MiaPaCa2 = MiaPaCa2 cell growth inhibition; format: cell-based, human; details: Tables 8-15; no unit printed there; listed as P61C4
Experimental: as §3, §2

Aspc-1 = Aspc-1 cell growth inhibition; format: cell-based, human; details: Tables 8-15; no unit printed there; listed as P61C4
Experimental: as §3, §2

Panc-1 = Panc-1 cell growth inhibition; format: cell-based, human; details: Tables 8-15; no unit printed there; listed as P61C4
Experimental: as §3, §1, §2

Capan-2 = Capan-2 cell growth inhibition; format: cell-based, human; details: Tables 8-15; no unit printed there; listed as P61C4
Experimental: as §3, §2

[1] = Homo sapiens, Jurkat, Tables 4, 6, 7, read-out: Jurkat cell GI50
[2] = Homo sapiens, Jurkat, Tables 8-15, no unit printed there, read-out: Jurkat GI50
[3] = Homo sapiens, K562, Tables 8-15
[4] = Homo sapiens, MCF7, Tables 8-15
[5] = Tables 4, 6, 7, read-out: Jurkat cell GI50

GI50 (Jurkat cells; [1]) | GI50 (Jurkat cells; [2]) | GI50 (K562 cells; [3]) | pIC50 (GGTase-I; Tables 3, 5, 7) | IC50 (GGTase-I) | GI50 (Jurkat cells; [5]) | SMILES | further results
1.96 µM | 1.96 µM | 4.33 µM | – | – | – | NC(=O)[C@H](Cc1ccccc1)NC(=O)C1=CC[C@@H](c2cccc(Cl)c2)N(S(=O)(=O)c2ccc(Cl)cc2)C1c1cccc(Cl)c1 (stereo partly shown) [P61-D02] | pIC50 (GGTase-I; Tables 5, 14): 6.22
– | – | – | < 4.70 | > 20 µM | 3.57 µM | NC(=O)[C@H](Cc1ccccc1)NC(=O)C1=CC[C@@H](c2cccc(Br)c2)N(S(=O)(=O)c2ccc(Cl)cc2)C1c1cccc(Cl)c1 (stereo partly shown) [P61-D05] | GI50 (Jurkat cells; Tables 8-15, no unit printed there, listed as P61D5, read-out: Jurkat GI50): 3.57 µM; GI50 (K562 cells; Tables 8-15, listed as P61D5): 10.3 µM
1.76 µM | 1.76 µM | 10.2 µM | 4.48 | 32.9 µM | – | CC(C)C[C@H](NC(=O)C1=CC[C@@H](c2cccc(Br)c2)N(S(=O)(=O)c2ccc(F)cc2)C1c1cccc(Cl)c1)C(N)=O (stereo partly shown) [P61-C11] | –
– | 3.15 µM | 7.06 µM | – | – | – | CC(C)C[C@H](NC(=O)C1=CC[C@@H](c2cccc(Br)c2)N(S(=O)(=O)c2ccc(Cl)cc2)C1c1cccc(Cl)c1)C(N)=O (stereo partly shown) | GI50 (MCF7; [4]): 3.43 µM; GI50 (MCF10a; Homo sapiens, MCF-10A): 14.2 µM
0.32 µM | 0.32 µM | 1.7 µM | 5.16 | 6.9 µM | – | CC(C)C[C@H](NC(=O)C1=CC[C@@H](c2cccc(Br)c2)N(S(=O)(=O)c2ccc(F)cc2)[C@H]1c1cccc(Cl)c1)C(N)=O [P61-D03] | –

Continued, molecule first:

SMILES | GI50 (Jurkat cells; [1]) | GI50 (Jurkat cells; [2]) | GI50 (K562 cells; [3]) | pIC50 (GGTase-I; Tables 3, 5, 7) | IC50 (GGTase-I) | GI50 (Jurkat cells; [5]) | further results
Cc1ccccc1S(=O)(=O)N1C(c2cccc(Cl)c2)C(C(=O)N[C@@H](CC(C)C)C(N)=O)=CC[C@H]1c1ccc(Cl)cc1 (stereo partly shown) | – | 6.1 µM | 6.15 µM | – | – | – | GI50 (MCF7; [4]): 10.9 µM; GI50 (MCF10a; Homo sapiens, MCF-10A): > 20 µM
CC(C)(C)[C@@H]1C=C(C(=O)N[C@@H](Cc2ccccc2)C(N)=O)[C@H](c2ccc(Cl)c(Cl)c2)N1S(=O)(=O)C(C)(C)C [P61-E02] | – | – | – | 5.57 | 2.7 µM | 4.57 µM | GI50 (Jurkat cells; Tables 8-15, no unit printed there, listed as P61E2, read-out: Jurkat GI50): 4.57 µM; GI50 (K562 cells; Tables 8-15, listed as P61E2): 4.22 µM
CC(C)(C)[C@@H]1C=C(C(=O)N[C@@H](Cc2ccccc2)C(N)=O)[C@H](c2ccc(Cl)c(Cl)c2)N1S(=O)(=O)C(C)(C)C [P61-D11] | 5.91 µM | 5.91 µM | 5.9 µM | < 4.30 | > 50 µM | – | –
Cc1ccccc1S(=O)(=O)N1[C@@H](c2ccc(Cl)cc2)C(C(=O)N[C@@H](Cc2ccccc2)C(=O)O)=C[C@H]1C(C)(C)C [drawing 152] | – | 13 µM | 20 µM | – | 1.4 µM | – | –
CC(C)(C)[C@@H]1C=C(C(=O)O)[C@H](c2ccc(Cl)cc2)N1S(=O)(=O)c1c(Cl)cccc1Cl | – | 2.76 µM | 8.26 µM | – | 4.4 µM | – | –
CC(C)(C)[C@@H]1C=C(C(=O)N[C@@H](Cc2ccccc2)C(N)=O)[C@H](c2ccc(Cl)c(Cl)c2)N1S(=O)(=O)c1c(Cl)cccc1Cl [P61-D10] | – | – | – | – | – | 5.28 µM | GI50 (Jurkat cells; Tables 8-15, no unit printed there, read-out: Jurkat GI50): 5.28 µM; GI50 (K562 cells; Tables 8-15): 3.67 µM
Cc1ccccc1S(=O)(=O)N1[C@@H](c2ccc(Cl)cc2)C(COCC(=O)N[C@@H](Cc2ccccc2)C(=O)O)=C[C@H]1C(C)(C)C | – | 12 µM | 17 µM | – | 0.1 µM | – | –
Cc1ccccc1S(=O)(=O)N1[C@@H](c2ccc(Cl)cc2)C(C(=O)N[C@@H](Cc2ccccc2)C(N)=O)=C[C@H]1C(C)CC(C)(C)C (stereo partly shown) [P61-C04] | – | – | – | < 4.30 | > 50 µM | 6.4 µM | GI50 (Jurkat cells; Tables 8-15, no unit printed there, listed as P61C4, read-out: Jurkat GI50): 6.4 µM; GI50 (K562 cells; Tables 8-15, listed as P61C4): 5.95 µM; GI50 (BT474): 10.1 µM; GI50 (MCF7; Tables 8-15, listed as P61C4): 4.71 µM; GI50 (MCF10a; listed as P61C4): 11.3 µM; GI50 (MiaPaCa2): 6.7 µM; GI50 (Aspc-1): 8.61 µM; GI50 (Panc-1): 8.6 µM; GI50 (Capan-2): 7.5 µM
